# Key:
# [1] = test system: C. albicans CAF2-1 strain; assay: Anti-Candida activity, MIC measurement; assay type: cell-based; conditions: CAF21STRAIN, C. albicans CAF2-1, RPMI1640, 42-48 hours at 35° C., visual inspection, read-out: Anti-Candida Activity (minimum inhibitory concentration, MIC)
# Protocol: (§1) For the C. albicans CAF2-1 strain, a fungal suspension from a standing culture for 48 hours at 30° C. in a Sabouraud dextrose liquid culture medium (SDB) was diluted with RPMI1640 medium to adjust a fungal suspension of 1.2×10^3 cells/mL. For the A. fumigatus Tsukuba strain, −80° C. stored strain was diluted with RPMI1640 medium to adjust to a fungal suspension of 4.5×10^3 cells/mL.
# (§2) Using a U-bottomed 96 well plate, 8 samples/plate (A to H) of sample dilution solutions were prepared. On the 2nd to 12th rows were dispensed 10 μL of dimethyl sulfoxide solution. Weighted sample was dissolved in dimethyl sulfoxide to prepare a 2.5 mg/mL solution, 20 μL of this solution was added to the first row of the prepared plate, and 12 steps of two-fold step dilutions (10 μL of solution+10 μL of dimethyl sulfoxide solution) were performed on the plate. This sample dilution solution was dispensed in the amount of 1 μL to a flat-bottomed 96 well plate for MIC measurement to prepare a sample dilution plate.
# (§3) The fungal suspension prepared in (1) was used in the amount of 99 μL/well to inoculate the flat-bottomed 96 well plate containing 1 μL/well of the test compound dilution prepared in (2), and a standing culture was carried out aerobically for 42-48 hours at 35° C.
# [2] = test system: A. fumigatus Tsukuba strain; assay: Anti-Aspergillus activity, MIC measurement; assay type: cell-based; conditions: RPMI1640, 42-48 hours at 35° C., visual inspection, read-out: Anti-Aspergillus Activity (minimum inhibitory concentration, MIC)
# Protocol: as §1, §2, §3
Structure (SMILES),MIC [1],MIC [2]
"Cc1ccc(Oc2ccc(Cc3cc(-c4ccc(N)nc4N)on3)s2)cc1 [Example 106, 3-(3-(5-p-Tolyloxy-thiophen-2-ylmethyl)-isoxazol-5-yl)-pyridin-2,6-diamine]",0.78 µg/mL,0.2 µg/mL
"Nc1ccc(-c2cc(Cc3ccc(OCc4ccncc4)cc3)no2)c(N)n1 [Example 107, 3-(3-(4-(Pyridin-4-ylmethoxy)-benzyl)-isoxazol-5-yl)-pyridin-2,6-diamine]",0.78 µg/mL,0.78 µg/mL
"Nc1ccc(-c2cc(Cc3ccc(OCc4cccnc4)cc3)no2)c(N)n1 [Example 108, 3-(3-(4-(Pyridin-3-ylmethoxy)-benzyl)-isoxazol-5-yl)-pyridin-2,6-diamine]",1.56 µg/mL,3.13 µg/mL
"Nc1ccc(-c2cc(Cc3ccc(COc4cc(F)ccn4)cc3)no2)c(N)n1 [Example 117, 3-(3-(4-(4-Fluoro-pyridin-2-yloxymethyl)-benzyl)-isoxazol-5-yl)-pyridin-2,6-diamine]",1.56 µg/mL,0.78 µg/mL
"Nc1ccc(-c2cc(Cc3cccc(OCc4ccccn4)c3)no2)c(N)n1 [Example 118, 3-(3-(3-(Pyridin-2-ylmethoxy)-benzyl)-isoxazol-5-yl)-pyridin-2,6-diamine]",0.78 µg/mL,3.13 µg/mL
"Nc1ccc(-c2cc(Cc3cccc(OCc4ccccc4)c3)no2)c(N)n1 [Example 119, 3-(3-(3-Benzyloxy-benzyl)-isoxazol-5-yl)-pyridin-2,6-diamine]",0.39 µg/mL,0.78 µg/mL
"Nc1ccc(-c2cc(Cc3ccc(Oc4ccccc4)cn3)no2)c(N)n1 [Example 121, 3-(3-(5-Phenoxy-pyridin-2-ylmethyl)-isoxazol-5-yl)-pyridin-2,6-diamine]",0.39 µg/mL,0.78 µg/mL
"Nc1ccc(-c2cc(Cc3ccc(OCc4ccc(Cl)cn4)cc3)no2)c(N)n1 [Example 122, 3-(3-(4-(5-Chloro-pyridin-2-ylmethoxy)-benzyl)-isoxazol-5-yl)-pyridin-2,6-diamine]",1.56 µg/mL,0.78 µg/mL
"Nc1ccc(-c2cc(Cc3cccc(Oc4ccccc4)c3)no2)c(N)n1 [Example 123, 3-(3-(3-Phenoxy-benzyl)-isoxazol-5-yl)-pyridin-2,6-diamine]",0.2 µg/mL,0.39 µg/mL
"CCCCOc1cccc(Cc2cc(-c3ccc(N)nc3N)on2)c1 [Example 124, 3-(3-(3-Butoxy-benzyl)-isoxazol-5-yl)-pyridin-2,6-diamine]",0.2 µg/mL,0.39 µg/mL
"Nc1ccc(-c2cc(Cc3cccc(OCC4CC4)c3)no2)c(N)n1 [Example 125, 3-(3-(3-Cyclopropylmethoxy-benzyl)-isoxazol-5-yl)-pyridin-2,6-diamine]",0.1 µg/mL,0.39 µg/mL
"CCCCOc1ccc(Cc2cc(-c3ccc(N)nc3N)on2)cc1 [Example 126, 3-(3-(4-Butoxy-benzyl)-isoxazol-5-yl)-pyridin-2,6-diamine]",1.56 µg/mL,0.39 µg/mL
"Nc1ccc(-c2cc(Cc3ccc(OCc4ccccc4)cn3)no2)c(N)n1 [Example 127, 3-(3-(5-Benzyloxy-pyridin-2-ylmethyl)-isoxazol-5-yl)-pyridin-2,6-diamine]",0.78 µg/mL,1.56 µg/mL
"Nc1ccc(-c2cc(Cc3ccc(NCc4ccccc4)cc3)no2)c(N)n1 [Example 128, 3-(3-(4-Benzylamino-benzyl)-isoxazol-5-yl)-pyridin-2,6-diamine]",0.2 µg/mL,0.39 µg/mL
"Nc1ccc(-c2cc(Cc3ccc(Nc4ccccc4)cc3)no2)c(N)n1 [Example 129, 3-(3-(4-Phenylamino-benzyl)-isoxazol-5-yl)-pyridin-2,6-diamine]",0.2 µg/mL,0.2 µg/mL
"CCCCc1ccc(Cc2cc(-c3ccc(N)nc3N)on2)cc1 [Example 130, 3-(3-(4-Butyl-benzyl)-isoxazol-5-yl)-pyridin-2,6-diamine]",1.56 µg/mL,0.2 µg/mL

Structure (SMILES),MIC [1],MIC [2]
"Nc1ccc(-c2cc(Cc3ccc(COc4ccc(F)cc4)nc3)no2)c(N)n1 [Example 132, 3-(3-(6-(4-Fluoro-phenoxymethyl)-pyridin-3-ylmethyl)-isoxazol-5-yl)pyridin-2,6-diamine]",3.13 µg/mL,3.13 µg/mL
"Nc1ccc(-c2cc(Cc3ccc(Oc4ccccc4F)nc3)no2)c(N)n1 [Example 134, 3-(3-(6-(2-Fluoro-phenoxy)-pyridin-3-ylmethyl)-isoxazol-5-yl)-pyridin-2,6-diamine]",0.39 µg/mL,0.78 µg/mL
"Nc1ccc(-c2cc(Cc3ccc(OCc4ccsc4)cc3)no2)c(N)n1 [Example 136, 3-(3-(4-(Thiophen-3-ylmethoxy)-benzyl)-isoxazol-5-yl)-pyridin-2,6-diamine]",0.2 µg/mL,0.2 µg/mL
"Nc1ccc(-c2cc(Cc3ccc(OC4CCCC4)cc3)no2)c(N)n1 [Example 137, 3-(3-(4-Cyclopentyloxy-benzyl)-isoxazol-5-yl)-pyridin-2,6-diamine]",0.78 µg/mL,1.56 µg/mL
"Nc1ccc(-c2cc(Cc3ccc(Oc4cccnc4)cc3)no2)c(N)n1 [Example 138, 3-(3-(4-(Pyridin-3-yloxy)-benzyl)-isoxazol-5-yl)-pyridin-2,6-diamine]",0.78 µg/mL,0.78 µg/mL
"Nc1ccc(-c2cc(Cc3ccc(OC4CCCCC4)cc3)no2)c(N)n1 [Example 139, 3-(3-(4-Cyclohexyloxy-benzyl)-isoxazol-5-yl)-pyridin-2,6-diamine]",1.56 µg/mL,> 25 µg/mL
"Nc1ccc(-c2cc(Cc3ccc(CCc4ccco4)cc3)no2)c(N)n1 [Example 140, 3-(3-(4-(2-Furan-2-yl-ethyl)-benzyl)-isoxazol-5-yl)-pyridin-2,6-diamine]",0.2 µg/mL,0.78 µg/mL
"Nc1ccc(-c2cc(Cc3ccc(Oc4ccc(F)cc4)cc3)no2)c(N)n1 [Example 141, 3-(3-(4-(4-Fluoro-phenoxy)-benzyl)-isoxazol-5-yl)-pyridin-2,6-diamine]",0.39 µg/mL,0.2 µg/mL
"Nc1ccc(-c2cc(Cc3ccc(Oc4cccc(F)c4)cc3)no2)c(N)n1 [Example 142, 3-(3-(4-(3-Fluoro-phenoxy)-benzyl)-isoxazol-5-yl)-pyridin-2,6-diamine]",0.39 µg/mL,0.39 µg/mL
Nc1ccc(-c2cc(Cc3ccc(CCC4CCCO4)cc3)no2)c(N)n1 (centres unmarked) [Example 143],0.39 µg/mL,0.78 µg/mL
"Nc1ccc(-c2cc(Cc3ccc(Oc4ccccc4F)cc3)no2)c(N)n1 [Example 144, 3-(3-(4-(2-Fluoro-phenoxy)-benzyl)-isoxazol-5-yl)-pyridin-2,6-diamine]",0.39 µg/mL,0.2 µg/mL
"Nc1ccc(-c2cc(Cc3cncc(Oc4ccccc4)c3)no2)c(N)n1 [Example 145, 3-(3-(5-Phenoxy-pyridin-3-ylmethyl)-isoxazol-5-yl)-pyridin-2,6-diamine]",6.25 µg/mL,12.5 µg/mL
"Nc1ccc(-c2cc(Cc3cccc(-c4ccccn4)c3)no2)c(N)n1 [Example 146, 3-(3-(3-Pyridin-2-yl-benzyl)-isoxazol-5-yl)-pyridin-2,6-diamine]",6.25 µg/mL,> 25 µg/mL
"Nc1ccc(-c2cc(Cc3cccc(-c4ccccc4)c3)no2)c(N)n1 [Example 147, 3-(3-Biphenyl-3-ylmethyl-isoxazol-5-yl)-pyridin-2,6-diamine]",1.56 µg/mL,1.56 µg/mL
"Nc1ccc(-c2cc(Cc3ccc(COc4ccccc4)cc3)no2)c(N)n1 [Example 148, 3-(3-(4-Phenoxymethyl-benzyl)-isoxazol-5-yl)-pyridin-2,6-diamine]",0.2 µg/mL,0.2 µg/mL

# Reference: patent US8158657B2, “Heterocycles substituted pyridine derivatives and antifungal agent containing thereof” (Eisai R&D Management Co., Ltd., priority 2005, dated 2012)
